Experimental data published in paper PMC7385433 (International Journal of Antimicrobial Agents, 2020).

Columns and labels:
[1] = test system: Burkholderia pseudomallei K96243; set-up: species or system Galleria mellonella; details: for survival of Galleria larvae / larvae whose haemolymph was sterile of any bacteria: in vivo
B. pseudomallei [2] = experiment: microbe, parasite or virus in culture; assay type: cell-based; details: Burkholderia pseudomallei, read-out: minimum inhibitory concentration (MIC)
[3] = in vivo
in vivo = details: female, BALB/c, mouse, ip, 15 mg/kg
[4] = not told; cited from earlier work
[5] = test system: gyrase and topoisomerase IV; details: cited from earlier work
[6] = test system: Burkholderia pseudomallei K96243; assay type: in vivo, BALB/c mice; details: for survival at 30 days post-infection: n = 5
B. pseudomallei [7] = details: ip; cited from earlier work

Compound: CO[C@@H]1[C@@H](OC(N)=O)[C@@H](O)[C@H](Oc2ccc3c(O)c(NC(=O)c4ccc(O)c(CC=C(C)C)c4)c(=O)oc3c2C)OC1(C)C [novobiocin]
- bacterial load in haemolymph (killing activity in vivo) [1]: no significant killing activity
- survival of Galleria larvae [1]: no larvae treated with novobiocin survived longer than 24 h post-infection
- MIC (B. pseudomallei [2]): < 10 µg/mL
- effect of DL-tryptophan on drug accumulation in tissue [3]: No significant effect on drug accumulation in adipose or haemolymphatic tissue
- AUC (in vivo): 33.2 µM·h
- AUC(0-inf) (in vivo): 33.2 µM·h
- AUC(0-t) (in vivo): 33.2 µM·h
- Cmax (in vivo): 10.7 µM
- Tmax (in vivo): 1 h
- half-life (in vivo; t1/2): 2.8 h

Compound: CO[C@@H]1[C@@H](OC(=O)c2ccc(C)[nH]2)[C@@H](O)[C@H](Oc2ccc3c(O)c(NC(=O)c4ccc(O)c(CC=C(C)C)c4)c(=O)oc3c2Cl)OC1(C)C [clorobiocin]
- bacterial load in haemolymph (killing activity in vivo) [1]: significantly reduced the bacterial load
- larvae whose haemolymph was sterile of any bacteria [1]: 100%
- survival of Galleria larvae [1]: all Galleria larvae survived
- membrane permeability compared with novobiocin [4]: improved membrane permeability
- potency as inhibitor of gyrase and topoisomerase IV relative to novobiocin [5]: more potent inhibitor

Compound: CC(C)(O/N=C(\C(=O)N[C@@H]1C(=O)N2C(C(=O)[O-])=C(C[n+]3ccccc3)CS[C@H]12)c1csc(N)n1)C(=O)O [ceftazidime]
- B. pseudomallei present in lungs of surviving mice ([6]; mouse, in vivo): two of three
- bacteria in spleen of surviving mice ([6]; mouse, in vivo): > 1 × 10^7 CFU
- survival at 30 days post-infection [6]: 60%

Compound: coumermycin
- activity against multiple strains of B. pseudomallei in vivo (B. pseudomallei [7]): significant activity
- units with complete organ sterility ([6]; mouse, in vivo): 40%
- survival at 30 days post-infection [6]: 40%
- bacterial load in haemolymph (killing activity in vivo) [1]: significantly reduced the bacterial load
- larvae whose haemolymph was sterile of any bacteria [1]: 60%
- survival of Galleria larvae [1]: all Galleria larvae survived
